IC50, total colon level and Mean blood concentration data for 1 compound are collected here from patent US9751837B2, “Kinase inhibitors” (RESPIVERT LIMITED, priority 2014, dated 2017).

The target of series [1] is c-Src (Homo sapiens (Human), UniProt P12931). The series can be described thus: c-Src enzyme inhibition, Z-LYTE FRET. The class given is biochemical. As to the method: (§1) The enzyme inhibitory activities of compounds disclosed herein are determined by FRET using synthetic peptides labelled with both donor and acceptor fluorophores (Z-LYTE, Invitrogen Ltd., Paisley, UK).
Chain of c-Src (P12931 whole entry, looked up): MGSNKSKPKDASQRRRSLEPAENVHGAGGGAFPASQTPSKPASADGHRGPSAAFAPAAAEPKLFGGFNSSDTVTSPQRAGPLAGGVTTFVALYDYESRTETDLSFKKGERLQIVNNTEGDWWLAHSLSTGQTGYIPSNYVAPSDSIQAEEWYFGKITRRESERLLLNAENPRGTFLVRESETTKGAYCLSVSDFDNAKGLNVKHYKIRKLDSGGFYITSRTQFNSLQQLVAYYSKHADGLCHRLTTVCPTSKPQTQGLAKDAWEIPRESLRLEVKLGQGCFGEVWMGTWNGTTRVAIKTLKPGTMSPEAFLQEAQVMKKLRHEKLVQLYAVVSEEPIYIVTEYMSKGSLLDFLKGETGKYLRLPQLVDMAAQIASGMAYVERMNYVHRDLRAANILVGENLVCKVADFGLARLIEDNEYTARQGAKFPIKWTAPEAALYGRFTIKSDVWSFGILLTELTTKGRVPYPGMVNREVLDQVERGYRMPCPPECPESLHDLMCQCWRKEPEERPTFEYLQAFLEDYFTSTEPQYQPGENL
The inhibitory activities of compounds of the invention against c-Src and Syk enzymes (Invitrogen), are evaluated in a similar fashion to that described hereinabove. The relevant enzyme (3000 ng/mL or 2000 ng/mL respectively, 2.5 μL) is incubated with the test compound (either 1 μg/mL, 0.1 μg/mL, 0.01 μg/mL, or 0.001 μg/mL, 2.5 μL each) for 2 hr at RT. The FRET peptides (8 μM. 2.5 μL), and appropriate ATP solutions (2.5 μL, 800 μM for c-Src, and 60 μM ATP for Syk) are then added to the enzymes/compound mixtures and the mixture incubated for 1 hr. Development reagent (protease, 5 μL) is added for 1 hr prior to detection in a fluorescence microplate reader (Varioskan® Flash, ThermoFisher Scientific).
(§2) In all cases, the site-specific protease cleaves non-phosphorylated peptide only and eliminates the FRET signal. Phosphorylation levels of each reaction are calculated using the ratio of coumarin emission (donor) over fluorescein emission (acceptor), for which high ratios indicate high phosphorylation and low ratios indicate low phosphorylation levels.

In series [2] the target is p38 MAPKα (MAPK14) (Homo sapiens (Human), UniProt Q16539). The series can be described thus: p38 MAPKα enzyme inhibition (Method 2), Z-LYTE FRET. The class given is biochemical. The procedure:
as §1
The following two assay variants can be used for determination of p38 MAPKα inhibition.
The inhibitory activities of test compounds against the p38 MAPKα isoform (MAPK14: Invitrogen) are evaluated indirectly by determining the level of activation/phosphorylation of the down-stream molecule, MAPKAP-K2. The p38 MAPKα protein (80 ng/mL, 2.5 μL) is mixed with the test compound (2.5 μL of either 4 μg/mL, 0.4 μg/mL, 0.04 μg/mL or 0.004 μg/mL) for 2 hr at RT. […] The mixture is incubated for 1 hr at RT. Development reagent (protease, 5 μL) is added for 1 hr prior to detection in a fluorescence microplate reader (Varioskan® Flash, ThermoFisher Scientific). […]
as §2

Series [3] addresses Syk (Homo sapiens (Human), UniProt P43405). In words: Syk enzyme inhibition, Z-LYTE FRET. It is filed as biochemical. The procedure:
as §1
The relevant enzyme (3000 ng/mL or 2000 ng/mL respectively, 2.5 μL) is incubated with the test compound (either 1 μg/mL, 0.1 μg/mL, 0.01 μg/mL, or 0.001 μg/mL, 2.5 μL each) for 2 hr at RT. […] Development reagent (protease, 5 μL) is added for 1 hr prior to detection in a fluorescence microplate reader (Varioskan® Flash, ThermoFisher Scientific).
as §2

The nature of series [4]: Pharmacokinetics and total colon distribution after single oral administration. The class given is in vivo, male C57BL/6 mice. The following applies: mice, oral 5 mg/kg; for total colon level: measured cpd = dosed cpd (1, 19, 47 as Na salt, 44 as NH4+ salt); for Mean blood concentration: measured cpd = dosed cpd (19, 47 as Na salt). As to the method: Studies were conducted by Sai Life Sciences (Hinjewadi, Pune, India) to investigate the systemic pharmacokinetics and total colon tissue distribution of compounds of the invention. In particular, pharmacokinetic studies were carried out in male C57BL/6 mice following a single oral administration of the compound.

SMILES strings stand for the structures.

Chain of p38 MAPKα (MAPK14) (Q16539 whole entry): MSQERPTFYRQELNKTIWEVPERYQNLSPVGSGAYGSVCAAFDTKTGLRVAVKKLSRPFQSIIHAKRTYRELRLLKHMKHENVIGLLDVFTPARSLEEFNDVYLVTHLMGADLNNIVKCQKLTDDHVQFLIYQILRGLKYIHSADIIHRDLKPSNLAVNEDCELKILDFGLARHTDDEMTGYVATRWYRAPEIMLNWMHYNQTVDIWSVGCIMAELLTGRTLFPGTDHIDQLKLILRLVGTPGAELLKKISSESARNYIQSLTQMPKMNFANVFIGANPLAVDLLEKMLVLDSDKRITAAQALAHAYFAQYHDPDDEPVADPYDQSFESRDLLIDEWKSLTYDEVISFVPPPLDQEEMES

`COc1cc(Nc2cc(Oc3ccc(NC(=O)Nc4cc(C(C)(C)C)cc(NS(C)(=O)=O)c4OC)c4ccccc34)ccn2)ccc1C(=O)NCCOCCOCCOP(=O)(O)O` [Example 19, 2-(2-(2-(4-((4-((4-(3-(5-(tert-Butyl)-2-methoxy-3-(methylsulfonamido)phenyl)ureido)naphthalen-1-yl)oxy)pyridin-2-yl)amino)-2-methoxybenzamido)ethoxy)ethoxy)ethyl dihydrogen phosphate]: the IC50 (as a rule, the concentration that gives 50% inhibition) in series [1] is 22 nM; in series [2] it was 8 nM; in series [3], 8 nM. The total colon level in series [4] (0.5 h), in series [4] (1 h), in series [4] (2 h), in series [4] (4 h), in series [4] (6 h) and in series [4] (8 h) was 0.0 ng/g in each case. Moreover, the total colon level in series [4] (12 h) and in series [4] (24 h) was 0.0 ng/g each time. Moreover, the Mean blood concentration in series [4] (0.5 h), in series [4] (1 h), in series [4] (2 h), in series [4] (4 h), in series [4] (6 h) and in series [4] (8 h) was 0.0 ng/mL each time. Further, the Mean blood concentration in series [4] (12 h) and in series [4] (24 h) was 0.0 ng/mL throughout.
